Assay results reported in the kinase profiling compilation of Christmann-Franck et al. (2016).

How the values were obtained:
Assay in all cases: radiometric filter-binding kinase assay, Kinase HotSpot
Settings in all cases: compound 0.5 µM; ATP 10 µM
ACVR1B (human) = ACVR1B (human) (UniProt P36896)
INSRR (human) = INSRR (human) (UniProt P14616)
TEK (human) = TEK (human) (UniProt Q02763)
GSG2 (human) = GSG2 (human) (UniProt Q8TF76)
AKT2 (human) = AKT2 (human) (UniProt P31751)
NEK7 (human) = NEK7 (human) (UniProt Q8TDX7)
MARK1 (human) = MARK1 (human) (UniProt Q9P0L2)
CLK3 (human) = CLK3 (human) (UniProt P49761)
STK25 (human) = STK25 (human) (UniProt O00506)
CDK6 CCND1 (human) = CDK6 CCND1 (human) (UniProt Q00534+P24385)
DYRK1B (human) = DYRK1B (human) (UniProt Q9Y463)
DYRK1B (human), sequence (Q9Y463 whole entry, looked up): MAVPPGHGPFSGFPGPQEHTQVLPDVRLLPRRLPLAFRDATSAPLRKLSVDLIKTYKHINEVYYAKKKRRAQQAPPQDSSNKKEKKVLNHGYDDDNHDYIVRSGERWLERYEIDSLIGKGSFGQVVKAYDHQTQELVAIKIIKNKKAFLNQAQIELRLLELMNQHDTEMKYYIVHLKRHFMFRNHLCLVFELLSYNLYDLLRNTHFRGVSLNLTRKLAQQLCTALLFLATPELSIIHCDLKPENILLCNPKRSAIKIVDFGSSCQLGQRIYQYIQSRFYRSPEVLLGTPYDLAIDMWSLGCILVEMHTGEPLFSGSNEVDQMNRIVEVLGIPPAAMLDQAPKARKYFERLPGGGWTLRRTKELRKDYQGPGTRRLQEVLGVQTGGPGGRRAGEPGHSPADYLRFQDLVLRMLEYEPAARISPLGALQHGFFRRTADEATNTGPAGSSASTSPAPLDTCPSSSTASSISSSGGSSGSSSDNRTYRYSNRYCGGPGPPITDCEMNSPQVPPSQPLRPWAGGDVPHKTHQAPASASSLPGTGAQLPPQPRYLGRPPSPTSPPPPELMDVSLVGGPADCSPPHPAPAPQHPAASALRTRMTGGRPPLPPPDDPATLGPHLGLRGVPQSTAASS

MAPK9 (human) = MAPK9 (human) (UniProt P45984)
CAMK4 (human) = CAMK4 (human) (UniProt Q16566)
FES (human) = FES (human) (UniProt P07332)
MARK2 (human) = MARK2 (human) (UniProt Q7KZI7)
MYLK (human) = MYLK (human) (UniProt Q15746)
MYLK (human), sequence (Q15746 whole entry, looked up): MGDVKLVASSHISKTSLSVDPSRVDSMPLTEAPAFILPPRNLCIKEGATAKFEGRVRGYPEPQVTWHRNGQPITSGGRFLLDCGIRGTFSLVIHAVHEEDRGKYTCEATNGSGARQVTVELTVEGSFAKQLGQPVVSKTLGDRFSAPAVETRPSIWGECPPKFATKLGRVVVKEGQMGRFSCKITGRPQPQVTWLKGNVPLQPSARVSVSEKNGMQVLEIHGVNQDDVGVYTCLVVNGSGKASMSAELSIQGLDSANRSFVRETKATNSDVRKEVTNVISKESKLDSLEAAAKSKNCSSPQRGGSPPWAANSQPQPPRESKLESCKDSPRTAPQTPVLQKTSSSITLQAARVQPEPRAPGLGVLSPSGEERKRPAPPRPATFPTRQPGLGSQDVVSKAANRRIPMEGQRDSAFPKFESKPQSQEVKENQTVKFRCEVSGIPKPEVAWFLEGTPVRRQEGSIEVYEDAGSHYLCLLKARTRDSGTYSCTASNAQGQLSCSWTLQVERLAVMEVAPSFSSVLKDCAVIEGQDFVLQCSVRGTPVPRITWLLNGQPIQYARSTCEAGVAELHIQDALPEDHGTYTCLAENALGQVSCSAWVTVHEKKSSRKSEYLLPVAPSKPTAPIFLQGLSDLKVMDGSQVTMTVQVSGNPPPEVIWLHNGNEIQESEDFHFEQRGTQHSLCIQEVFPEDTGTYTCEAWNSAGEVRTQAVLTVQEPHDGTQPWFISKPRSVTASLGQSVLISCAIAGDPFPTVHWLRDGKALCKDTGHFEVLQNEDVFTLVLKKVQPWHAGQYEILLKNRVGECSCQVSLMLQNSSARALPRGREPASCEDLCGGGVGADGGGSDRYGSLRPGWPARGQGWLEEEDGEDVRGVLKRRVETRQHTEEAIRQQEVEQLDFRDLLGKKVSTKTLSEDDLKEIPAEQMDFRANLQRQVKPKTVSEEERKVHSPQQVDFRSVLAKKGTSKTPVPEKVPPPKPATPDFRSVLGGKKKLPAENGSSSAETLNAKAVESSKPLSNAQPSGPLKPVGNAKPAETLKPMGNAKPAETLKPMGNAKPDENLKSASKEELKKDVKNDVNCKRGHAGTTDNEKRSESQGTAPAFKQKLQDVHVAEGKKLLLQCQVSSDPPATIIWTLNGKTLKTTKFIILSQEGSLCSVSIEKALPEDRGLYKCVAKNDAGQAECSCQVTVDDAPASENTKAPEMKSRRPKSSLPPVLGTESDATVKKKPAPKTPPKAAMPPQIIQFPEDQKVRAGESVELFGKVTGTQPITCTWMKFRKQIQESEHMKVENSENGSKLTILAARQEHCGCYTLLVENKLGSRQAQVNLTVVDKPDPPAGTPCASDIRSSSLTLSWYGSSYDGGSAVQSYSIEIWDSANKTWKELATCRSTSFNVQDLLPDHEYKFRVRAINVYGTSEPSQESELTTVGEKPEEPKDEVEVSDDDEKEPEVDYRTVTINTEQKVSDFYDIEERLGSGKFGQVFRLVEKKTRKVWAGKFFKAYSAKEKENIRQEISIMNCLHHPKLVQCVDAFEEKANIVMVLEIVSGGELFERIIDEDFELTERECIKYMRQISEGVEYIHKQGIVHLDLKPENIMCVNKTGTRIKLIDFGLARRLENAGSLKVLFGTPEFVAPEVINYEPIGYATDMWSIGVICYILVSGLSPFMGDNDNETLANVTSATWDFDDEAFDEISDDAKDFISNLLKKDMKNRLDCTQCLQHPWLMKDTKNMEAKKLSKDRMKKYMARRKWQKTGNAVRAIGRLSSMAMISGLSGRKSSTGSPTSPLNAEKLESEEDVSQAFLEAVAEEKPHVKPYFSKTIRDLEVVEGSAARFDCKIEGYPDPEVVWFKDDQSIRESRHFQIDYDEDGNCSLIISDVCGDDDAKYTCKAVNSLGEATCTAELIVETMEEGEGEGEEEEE

CSF1R (human) = CSF1R (human) (UniProt P07333)
AXL (human) = AXL (human) (UniProt P30530)
CSNK1D (human) = CSNK1D (human) (UniProt P48730)
PTK6 (human) = PTK6 (human) (UniProt Q13882)
PRKACA (human) = PRKACA (human) (UniProt P17612)
FGFR1 (human) = FGFR1 (human) (UniProt P11362)
FGFR1 (human), sequence (P11362 whole entry, looked up): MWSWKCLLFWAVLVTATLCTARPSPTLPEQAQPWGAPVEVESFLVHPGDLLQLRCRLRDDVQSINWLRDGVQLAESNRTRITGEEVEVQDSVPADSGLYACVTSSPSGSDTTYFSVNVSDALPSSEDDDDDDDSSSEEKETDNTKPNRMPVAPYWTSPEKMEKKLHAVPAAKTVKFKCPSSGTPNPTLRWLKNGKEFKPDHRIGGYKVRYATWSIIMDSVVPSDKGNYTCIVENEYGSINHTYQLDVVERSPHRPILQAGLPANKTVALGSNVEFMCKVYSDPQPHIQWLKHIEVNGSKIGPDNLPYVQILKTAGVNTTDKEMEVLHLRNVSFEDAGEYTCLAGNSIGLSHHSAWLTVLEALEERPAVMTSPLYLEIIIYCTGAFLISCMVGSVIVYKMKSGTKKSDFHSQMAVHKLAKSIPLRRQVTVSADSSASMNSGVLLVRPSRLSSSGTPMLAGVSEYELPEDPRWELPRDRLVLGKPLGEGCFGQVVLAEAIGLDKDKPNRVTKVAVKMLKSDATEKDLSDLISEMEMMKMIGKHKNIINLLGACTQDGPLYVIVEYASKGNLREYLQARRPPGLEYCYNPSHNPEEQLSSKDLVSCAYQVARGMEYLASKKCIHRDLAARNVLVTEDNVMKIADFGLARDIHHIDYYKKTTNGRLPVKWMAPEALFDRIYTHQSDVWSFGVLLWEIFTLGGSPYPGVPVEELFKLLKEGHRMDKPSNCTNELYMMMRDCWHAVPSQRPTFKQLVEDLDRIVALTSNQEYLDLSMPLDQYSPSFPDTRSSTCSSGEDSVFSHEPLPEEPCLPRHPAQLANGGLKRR

CAMK2B (human) = CAMK2B (human) (UniProt Q13554)
WNK3 (human) = WNK3 (human) (UniProt Q9BYP7)
CDC42BPA (human) = CDC42BPA (human) (UniProt Q5VT25)
CHUK (human) = CHUK (human) (UniProt O15111)
IRAK1 (human) = IRAK1 (human) (UniProt P51617)
MLTK (human) = MLTK (human) (UniProt Q9NYL2)
SLK (human) = SLK (human) (UniProt Q9H2G2)
NEK3 (human) = NEK3 (human) (UniProt P51956)
PDGFRA (human) = PDGFRA (human) (UniProt P16234)
ABL1 (human) = ABL1 (human) (UniProt P00519)
NEK9 (human) = NEK9 (human) (UniProt Q8TD19)
NEK9 (human), sequence (Q8TD19 whole entry, looked up): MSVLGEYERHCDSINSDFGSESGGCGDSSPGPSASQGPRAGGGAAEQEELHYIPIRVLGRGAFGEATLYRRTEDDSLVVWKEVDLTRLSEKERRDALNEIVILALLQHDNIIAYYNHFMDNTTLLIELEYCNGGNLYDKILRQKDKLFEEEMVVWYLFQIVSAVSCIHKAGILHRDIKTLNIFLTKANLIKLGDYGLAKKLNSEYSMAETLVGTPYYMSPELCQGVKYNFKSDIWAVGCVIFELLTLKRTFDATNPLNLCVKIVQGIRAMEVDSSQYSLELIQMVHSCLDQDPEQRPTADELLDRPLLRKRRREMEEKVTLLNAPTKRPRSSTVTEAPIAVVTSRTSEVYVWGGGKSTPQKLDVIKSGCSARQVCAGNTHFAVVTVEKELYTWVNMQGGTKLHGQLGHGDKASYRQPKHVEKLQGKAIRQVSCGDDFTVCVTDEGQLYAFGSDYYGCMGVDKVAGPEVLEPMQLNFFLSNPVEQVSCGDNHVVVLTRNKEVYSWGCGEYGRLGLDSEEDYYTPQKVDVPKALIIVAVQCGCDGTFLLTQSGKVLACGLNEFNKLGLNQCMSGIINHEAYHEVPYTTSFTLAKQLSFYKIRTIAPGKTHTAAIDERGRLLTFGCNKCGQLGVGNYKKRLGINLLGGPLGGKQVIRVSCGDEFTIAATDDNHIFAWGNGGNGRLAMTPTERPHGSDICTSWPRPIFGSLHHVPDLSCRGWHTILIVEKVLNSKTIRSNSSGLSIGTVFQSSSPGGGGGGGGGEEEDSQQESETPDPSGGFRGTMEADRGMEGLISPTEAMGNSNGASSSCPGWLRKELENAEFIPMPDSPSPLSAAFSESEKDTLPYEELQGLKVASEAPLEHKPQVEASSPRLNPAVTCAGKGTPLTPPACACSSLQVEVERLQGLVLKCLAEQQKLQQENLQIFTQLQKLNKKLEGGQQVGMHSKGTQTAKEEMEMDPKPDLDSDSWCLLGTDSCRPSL

FLT3 (human) = FLT3 (human) (UniProt P36888)
PRKCB1 (human) = PRKCB1 (human) (UniProt P05771)
SRPK3 (human) = SRPK3 (human) (UniProt Q9UPE1)
GRK7 (human) = GRK7 (human) (UniProt Q8WTQ7)
MAPK3 (human) = MAPK3 (human) (UniProt P27361)
FGR (human) = FGR (human) (UniProt P09769)
PHKG1 (human) = PHKG1 (human) (UniProt Q16816)
[1] = tested on: MKNK1 (human), Q9BUB5 [T385D; 165-205 del]
PLK1 (human) = PLK1 (human) (UniProt P53350)
PLK1 (human), sequence (P53350 whole entry, looked up): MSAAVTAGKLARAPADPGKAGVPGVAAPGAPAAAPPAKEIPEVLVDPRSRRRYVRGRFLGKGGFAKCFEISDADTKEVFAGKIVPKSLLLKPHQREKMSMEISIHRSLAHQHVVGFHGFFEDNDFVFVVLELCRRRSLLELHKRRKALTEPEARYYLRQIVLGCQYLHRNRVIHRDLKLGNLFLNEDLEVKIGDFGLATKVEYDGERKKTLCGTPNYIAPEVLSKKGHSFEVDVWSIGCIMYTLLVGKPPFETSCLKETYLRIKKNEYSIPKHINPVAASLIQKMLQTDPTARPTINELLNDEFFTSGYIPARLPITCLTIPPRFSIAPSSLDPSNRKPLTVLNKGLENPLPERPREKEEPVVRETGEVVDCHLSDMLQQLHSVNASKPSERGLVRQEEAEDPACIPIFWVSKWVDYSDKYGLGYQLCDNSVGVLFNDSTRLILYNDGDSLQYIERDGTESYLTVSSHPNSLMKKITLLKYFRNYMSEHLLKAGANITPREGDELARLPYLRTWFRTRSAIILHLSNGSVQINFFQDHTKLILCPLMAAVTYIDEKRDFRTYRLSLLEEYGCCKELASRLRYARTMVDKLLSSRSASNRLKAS

With `O=C1c2ccccc2-c2nc3nnnn3nc21` the residual activity (ACVR1B (human)) was 113%, the residual activity (INSRR (human)) was 86.7% and the residual activity (TEK (human)) was 4.27%. The residual activity (GSG2 (human)) was 79.2%, the residual activity (AKT2 (human)) was 55.8% and the residual activity (NEK7 (human)) was 83.6%. The residual activity (MARK1 (human)) was 98.2%, the residual activity (CLK3 (human)) was 81.2% and the residual activity (STK25 (human)) was 101%. The residual activity (CDK6 CCND1 (human)) was 59.6%, the residual activity (DYRK1B (human)) was 81% and the residual activity (MAPK9 (human)) was 51.9%. For the same molecule, the residual activity (CAMK4 (human)) was 85.4%, the residual activity (FES (human)) was 87.6% and the residual activity (MARK2 (human)) was 94.2%. The residual activity (MYLK (human)) was 94.1%, the residual activity (CSF1R (human)) was 11.6% and the residual activity (AXL (human)) was 10.3%. For the same molecule, the residual activity (CSNK1D (human)) was 86.8%, the residual activity (PTK6 (human)) was 111% and the residual activity (PRKACA (human)) was 76.6%. It also gave a residual activity (FGFR1 (human)) of 24.2%, a residual activity (CAMK2B (human)) of 85.1% and a residual activity (WNK3 (human)) of 116%. It also gave a residual activity (CDC42BPA (human)) of 91.6%, a residual activity (CHUK (human)) of 72% and a residual activity (IRAK1 (human)) of 77.6%. It also gave a residual activity (MLTK (human)) of 69.8%, a residual activity (SLK (human)) of 92.4% and a residual activity (NEK3 (human)) of 111%. It also gave a residual activity (PDGFRA (human)) of 44.1%, a residual activity (ABL1 (human)) of 89.7% and a residual activity (NEK9 (human)) of 119%. It also gave a residual activity (FLT3 (human)) of 100%, a residual activity (PRKCB1 (human)) of 83.1% and a residual activity (SRPK3 (human)) of 89.4%. For the same molecule, the residual activity (GRK7 (human)) was 78.1%, the residual activity (MAPK3 (human)) was 87% and the residual activity (FGR (human)) was 79.8%. The residual activity (PHKG1 (human)) was 92.5%, the residual activity [1] was 79.3% and the residual activity (PLK1 (human)) was 28.6%.

`CO[C@@H]1[C@H](N(C)C(=O)c2ccccc2)C[C@H]2O[C@]1(C)n1c3ccccc3c3c4c(c5c6ccccc6n2c5c31)C(=O)NC4` was tested, and the residual activity (ACVR1B (human)) was 102%, the residual activity (INSRR (human)) was 96.2% and the residual activity (GSG2 (human)) was 70.2%. The residual activity (NEK7 (human)) was 101%, the residual activity (MARK1 (human)) was 4.09% and the residual activity (CLK3 (human)) was 89.6%. For the same molecule, the residual activity (STK25 (human)) was 55%, the residual activity (CDK6 CCND1 (human)) was 96.5% and the residual activity (DYRK1B (human)) was 35.6%. For the same molecule, the residual activity (MAPK9 (human)) was 82.7%, the residual activity (CAMK4 (human)) was 103% and the residual activity (FES (human)) was 48.3%. For the same molecule, the residual activity (MYLK (human)) was 27.3%, the residual activity (CSF1R (human)) was 6.65% and the residual activity (AXL (human)) was 106%. For the same molecule, the residual activity (CSNK1D (human)) was 101%, the residual activity (PTK6 (human)) was 96.2% and the residual activity (PRKACA (human)) was 34%. For the same molecule, the residual activity (FGFR1 (human)) was 36.1%, the residual activity (CAMK2B (human)) was 57.4% and the residual activity (WNK3 (human)) was 91.4%. The residual activity (CDC42BPA (human)) was 96%, the residual activity (IRAK1 (human)) was 86.3% and the residual activity (MLTK (human)) was 94.2%. For the same molecule, the residual activity (SLK (human)) was 30.5%, the residual activity (NEK3 (human)) was 107% and the residual activity (PDGFRA (human)) was 30%. For the same molecule, the residual activity (ABL1 (human)) was 82.7%, the residual activity (NEK9 (human)) was 64.4% and the residual activity (SRPK3 (human)) was 93.3%. It also gave a residual activity (GRK7 (human)) of 15.5%, a residual activity (MAPK3 (human)) of 88.4% and a residual activity (FGR (human)) of 17.4%. For the same molecule, the residual activity (PHKG1 (human)) was 2.34%, the residual activity [1] was 92.7% and the residual activity (PLK1 (human)) was 95.4%.

`O=C1C(Cl)=C(N2C(=O)CCC2=O)C(=O)c2ccccc21` was tested, and the residual activity (ACVR1B (human)) was 106%, the residual activity (INSRR (human)) was 96.9% and the residual activity (TEK (human)) was 96.7%. It also gave a residual activity (GSG2 (human)) of 101%, a residual activity (AKT2 (human)) of 96.3% and a residual activity (NEK7 (human)) of 95.4%. For the same molecule, the residual activity (MARK1 (human)) was 99.3%, the residual activity (CLK3 (human)) was 114% and the residual activity (STK25 (human)) was 107%. For the same molecule, the residual activity (CDK6 CCND1 (human)) was 100%, the residual activity (DYRK1B (human)) was 103% and the residual activity (MAPK9 (human)) was 93.6%. The residual activity (FES (human)) was 97.5%, the residual activity (MARK2 (human)) was 79.4% and the residual activity (MYLK (human)) was 99.4%. The residual activity (CSF1R (human)) was 102%, the residual activity (CSNK1D (human)) was 99.4% and the residual activity (PTK6 (human)) was 94.8%. For the same molecule, the residual activity (PRKACA (human)) was 88.8%, the residual activity (FGFR1 (human)) was 99.5% and the residual activity (CAMK2B (human)) was 106%. It also gave a residual activity (WNK3 (human)) of 96.4%, a residual activity (CDC42BPA (human)) of 103% and a residual activity (CHUK (human)) of 101%. It also gave a residual activity (IRAK1 (human)) of 101%, a residual activity (MLTK (human)) of 97.9% and a residual activity (SLK (human)) of 104%. It also gave a residual activity (NEK3 (human)) of 102%, a residual activity (PDGFRA (human)) of 109% and a residual activity (ABL1 (human)) of 103%. For the same molecule, the residual activity (NEK9 (human)) was 98.3%, the residual activity (FLT3 (human)) was 108% and the residual activity (PRKCB1 (human)) was 92.1%. The residual activity (SRPK3 (human)) was 93.6%, the residual activity (GRK7 (human)) was 109% and the residual activity (MAPK3 (human)) was 99.3%. It also gave a residual activity (FGR (human)) of 102%, a residual activity (PHKG1 (human)) of 96.5% and a residual activity [1] of 135%. The residual activity (PLK1 (human)) was 97.6%.
